In patent US20210228484A1, “VETERINARY THICK GEL COMPOSITION OF HIGH PALATABILITY CONTAINING ANTIOXIDANTS TO DECREASE SARCOPENIA, OSTEOPENIA AND DNA DAMAGE FROM OXIDATIVE STRESS IN DOGS, AND PROCEDURE FOR ITS OBTENTION” (priority 2018, published 2021):

Test system: oxidative stress
Assay: Overall effect of the antioxidant dietary complement on oxidative stress biomarkers in dogs
Type: in vivo
Conditions: provided alone
Source text: The evaluated biomarkers let us assure that the provision of antioxidants, particularly the mixtures of at least two antioxidants selected from Resveratrol. Pterostilbene and Vitamin E, as a dietary complement had the following effects. 1) decrease of oxidative stress, 2) highly significant decrease in the loss of skeletal muscle (CPK), 3) highly significant decrease in the loss of bone mass (ALP), and 4) decrease of 12-15% in the loss of (8(OH)dG) DNA. […] It is also possible to observe that the Vitamin E that was provided alone produced a lesser effect, compared to that of the mixture of two antioxidants that were jointly provided.

Compound: CC(=O)Oc1c(C)c(C)c2c(c1C)CCC(C)(CCCC(C)CCCC(C)CCCC(C)C)O2 (racemic) [Vitamin E, DL-alpha tocopherol acetate]
- effect on the biomarkers compared to the mixture of two antioxidants: lesser effect
